According to patent publication US12552806B2, “Androgen receptor regulation by small molecule enantiomers” (University of Southern California, priority 2020, dated 2026):
Residue numbers refer to the chain shown, from its start. Entries after “also recorded” stand apart in the source; their conditions may differ. Where two headings read alike, the source gives them in different places.

Columns and labels:
GFP-AR = target: T1, GFP-AR (Homo sapiens, UniProt P10275); assay: Confocal microscopy of PC3 GFP-AR cells (nuclear hyperspeckling); format: cell-based; settings: 10 μM enantiomer 180 min, 1 nM R1881 90 min
T1 construct: expressed in transfected cells; host or cells: PC3
T1 sequence (P10275 1-920): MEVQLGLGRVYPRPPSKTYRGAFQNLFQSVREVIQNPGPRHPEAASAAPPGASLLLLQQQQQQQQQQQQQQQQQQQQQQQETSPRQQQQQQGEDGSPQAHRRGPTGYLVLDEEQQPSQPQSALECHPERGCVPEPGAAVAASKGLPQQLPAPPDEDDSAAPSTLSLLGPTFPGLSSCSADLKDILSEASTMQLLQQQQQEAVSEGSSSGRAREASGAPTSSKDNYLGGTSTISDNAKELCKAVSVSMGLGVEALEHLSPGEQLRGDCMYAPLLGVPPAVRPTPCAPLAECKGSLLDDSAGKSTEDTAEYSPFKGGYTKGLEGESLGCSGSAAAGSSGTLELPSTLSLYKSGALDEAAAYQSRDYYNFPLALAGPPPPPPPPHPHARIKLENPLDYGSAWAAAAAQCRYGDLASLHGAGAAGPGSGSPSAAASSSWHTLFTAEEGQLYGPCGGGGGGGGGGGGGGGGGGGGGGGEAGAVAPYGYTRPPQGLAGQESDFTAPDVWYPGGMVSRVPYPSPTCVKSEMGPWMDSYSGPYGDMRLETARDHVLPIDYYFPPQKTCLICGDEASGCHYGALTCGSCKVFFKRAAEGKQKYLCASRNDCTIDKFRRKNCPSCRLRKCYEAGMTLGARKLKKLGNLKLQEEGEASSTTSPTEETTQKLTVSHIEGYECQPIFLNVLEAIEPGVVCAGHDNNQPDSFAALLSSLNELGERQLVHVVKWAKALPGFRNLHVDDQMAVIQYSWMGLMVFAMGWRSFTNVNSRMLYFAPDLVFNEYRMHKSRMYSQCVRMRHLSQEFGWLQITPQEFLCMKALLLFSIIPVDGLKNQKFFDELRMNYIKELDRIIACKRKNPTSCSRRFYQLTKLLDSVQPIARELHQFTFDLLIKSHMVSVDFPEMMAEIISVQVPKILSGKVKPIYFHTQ
Experimental: Initial compound testing was performed with PC3 GFP-AR cells and confocal microscopy. First, we tested purified BMS enantiomers (FIG. 6A).
(§1) PC3 and VCaP cell lines were obtained from ATCC and cultured as recommended. Generation and culture of PC3 GFP-AR cells were described previously (14). ARE-luciferase cells were generated using Cignal Lenti AR Reporter (Qiagen). Cell lines were authenticated using NIST-approved short tandem repeat DNA profiling and tested negative for mycoplasma. Drug treatments were conducted after overnight culture in phenol red-free media supplemented with charcoal:dextran stripped FBS.
Confocal Microscopy. PC3 GFP-AR cells were seeded and stained overnight with SiR-DNA ([…]).

[1] = test system: AR-regulated genes in VCaP cells; assay: RT-qPCR array of AR target genes in VCaP cells; format: cell-based; settings: 82 AR target genes, vs NTC and DHT
Experimental: To test for corresponding transcriptional activation, we performed assays in cells expressing ARE-luciferase. […] Next, we examined gene expression in VCaP cells, a hormone-responsive but independent model of CRPC highly expressing AR.
RT-qPCR Array. RNA was isolated using the Illustra RNAspin Mini Kit (GE Healthcare). RNA was transcribed to cDNA using RT2 First Strand Kit (Qiagen). RT-qPCR was performed using Biorad CFX Connect on a RT2 Profiler PCR Array Human Androgen Receptor Signaling Targets (Qiagen).

LNCaP cells = assay: LNCaP cell viability assay (CellTiter-Glo); format: cell-based; settings: 1 and 10 μM drug + 60 pM R1881, 5 days
Experimental: LNCaP cell viability assay. Cells were seeded into 96-well fibronectin coated (1 ug/cm^2) plates (CellCarrier, PerkinElmer) at a density of 5,000 cells/well. […] Drug-treated cells were lysed with CellTiter-Glo 3D Cell Viability Assay (Promega) and transferred to white 96-well plates (Corning). Luminescence was measured utilizing GloMax 96 Microplate Luminometer (Promega). Analysis was conducted in the R statistical environment (v 3.6.0). […] Visualizations were facilitated by the ggplot2 package (v3.2.1), with standard error (S.E.) shown where appropriate.

AR T878A = target: T2, AR T878A (Homo sapiens, UniProt P10275, T878A); assay: cell-based; format: cell-based
T2 construct: LNCaP cells expressing AR T878A; endogenous in cells; host or cells: LNCaP-luc (LNCaP stably carrying the Cignal Lenti AR Reporter)
T2 sequence (P10275 1-920 T878A): T1 sequence (P10275 1-920) with T878A
Source text: We generated a LNCaP cell line stably expressing luciferase controlled by androgen response elements (ARE-luciferase).
Cell Culture and Treatments. The LNCaP cell line were obtained from ATCC, cultured in RPMI1640 (Corning) supplemented with 10% heat-inactivated GemCell bovine serum (Gemini Bio-Products) and Penicillin-Streptomycin (Gemini Bio-Products). Cell lines stably expressing ARE-luciferase (LNCaP-luc) was generated using Cignal Lenti AR Reporter (Qiagen) and was continuously cultured with 500 ng/mL Puromycin (Gibco) for positive selection. Cells were maintained at 37° C. in a humidified incubator with 5% carbon dioxide. All cell lines were authenticated using NIST approved short tandem repeat (STR) DNA profiling performed by the University of Arizona Genetics Core and routinely tested negative for mycoplasma.
Luciferase assay. LNCaP-luc cells were seeded in clear flat bottom white polystyrene 96-well plates (Corning) at a density of 12,000 cells/well. […] Dose-response curves were fit using the delta method and t-distribution (n=1). Compounds are tested up to 10 μM.

[2] = Microsome stability assay; format: in vitro ADME, human; settings: for toxic metabolite BMS-501949 detected in LCMS / active metabolite detected in LCMS: 10 μM drug; for toxic metabolite BMS-501949 detected in LCMS: 8 h incubation, o-fluoro-BMS-501949 for EITM-1707; for active metabolite detected in LCMS: Unnamed metabolite (predicted active) for EITM compounds, BMS-570511 for BMS-641988, 8 h; for half-life at 1 μM / microsomal CLint at 1 μM: human, pooled human liver microsomes, pH 7.4, liver microsomes; for half-life at 1 μM: 1 μM drug, read-out: T½; for microsomal CLint at 1 μM: read-out: rate of intrinsic clearance
Experimental: Microsome stability assays. In vitro metabolism was determined as described previously. Specifically, to measure metabolism of parent compounds, the higher throughput protocol was applied, in which 0.5 mg/ml pooled human liver microsomes (Sigma) were mixed with 1 μM drugs and phosphate buffer (0.1 M, pH 7.4) in 96-well plates. Enzymatic reactions were started by adding 1 mM NADPH (Sigma Aldrich) followed by incubation at 37° C. Fractions were quenched by transfer to ice-cold acetonitrile after the indicated incubation times. Samples were analyzed using liquid chromatography-mass spectrometry (LC/MS-MS). Rates of intrinsic clearance were determined from the amount of the parent compound consumed per min per mg of microsomal protein as described previously. To analyze accumulating metabolites, the basic protocol was used, and microsomes were incubated with 10 μM drugs for 8 h.

VCaP cells = assay: VCaP viability assay (CellTiter-Glo); format: cell-based
Experimental: as §1
Luminometer Assays. For ARE-luciferase, luciferase substrate was added to lysed cells after 24-h treatment. For viability, cells were lysed with CellTiter-Glo 3D Cell Viability Assay (Promega) after 6 d of treatment. Measurements were performed in 96-well plates (Corning) using a GloMax 96 Microplate Luminometer (Promega).

CCS(=O)(=O)N[C@H]1C[C@]2(C)O[C@@]1(C)[C@H]1C(=O)N(c3ccc(C#N)c(C(F)(F)F)c3)C(=O)[C@H]12 [(S)-BMS, N-((3aS,4S,5S,7S,7aR)-2-(4-cyano-3-(trifluoromethyl)phenyl)-4,7-dimethyl-1,3-dioxooctahydro-1H-4,7-epoxyisoindol-5-yl)ethanesulfonamide]
nuclear hyperspeckling, in words (GFP-AR): caused substantial hyperspeckling, comparable to that of R1881

CC(O)c1cc(C(=O)N[C@H]2C[C@]3(C)O[C@@]2(C)[C@H]2C(=O)N(c4ccc(C#N)c(C(F)(F)F)c4F)C(=O)[C@H]23)n[nH]1 (stereo partly drawn) [(S)-EITM-1707, N-((3aS,4S,5S,7S,7aR)-2-(4-cyano-2-fluoro (trifluoromethyl)phenyl)-4,7-dimethyl-1,3-dioxooctahydro-1H-4,7-epoxyisoindol-5-yl)-5-(1-hydroxyethyl)-1H-pyrazole-3-carboxamide]
AR-dependent gene expression, in words [1]: rescued the castration phenotype, mimicking DHT

CCS(=O)(=O)N[C@@H]1C[C@@]2(C)O[C@]1(C)[C@@H]1C(=O)N(c3ccc(C#N)c(C(F)(F)F)c3)C(=O)[C@@H]12 [BMS-641988, N-((3aR,4R,5R,7R,7aS)-2-(4-cyano-3-(trifluoromethyl)phenyl)-4,7-dimethyl-1,3-dioxooctahydro-1H-4,7-epoxyisoindol-5-yl)ethanesulfonamide, reference compound]
LNCaP proliferation / viable cells, in words (LNCaP cells): promoted proliferation | nuclear hyperspeckling, in words (GFP-AR): inhibited R1881-induced hyperspeckling | AR agonism / antagonism in LNCaP ARE-luciferase, in words (AR T878A): potent agonist in LNCaP cells; also recorded: induced ARE-luciferase without addition of R1881 | EC50 (AR T878A): 0.094 ± 0.022 µM | ED50 (AR T878A): agonist | Emax (AR T878A): agonist | toxic metabolite BMS-501949 detected in LCMS [2]: accumulated and yes | active metabolite detected in LCMS [2]: yes | half-life at 1 μM [2]: 1.44 h | microsomal CLint at 1 μM [2]: 10.1 µL/min/mg

C[C@]12O[C@](C)(C[C@H]1NC(=O)c1cc[nH]n1)[C@H]1C(=O)N(c3ccc(C#N)c(C(F)(F)F)c3)C(=O)[C@H]12 [EITM-1702, N-((3aR,4R,5R,7R,7aS)-2-(4-cyano-3-(trifluoromethyl)phenyl)-4,7-dimethyl-1,3-dioxooctahydro-1H-4,7-epoxyisoindol-5-yl)-1H-pyrazole-3-carboxamide]
LNCaP proliferation / viable cells, in words (LNCaP cells): almost phenocopying castrate conditions; also recorded: inhibited the growth of LNCaP prostate cancer cells | AR agonism / antagonism in LNCaP ARE-luciferase, in words (AR T878A): robust antagonistic activities without notable agonism | EC50 (AR T878A): 0.57 µM | Emax (AR T878A; LNCaP): 8% | toxic metabolite BMS-501949 detected in LCMS [2]: not detected | toxic metabolite BMS-501949 detected in LCMS ([2]; listed as (R)-EITM-1702): no | active metabolite detected in LCMS [2]: yes | half-life at 1 μM [2]: 0.944 h | microsomal CLint at 1 μM [2]: 15.3 µL/min/mg | R1881-induced growth, in words (VCaP cells; 10 μM drug + 1 nM R1881, 6-d treatment): visibly suppressed R1881-induced growth | (S)-enantiomer fraction that halved the drug effect, cell viability (VCaP cells; 10 μM mixture + 1 nM R1881, 6 d, 95% CI (0.2%, 0.4%)): 0.3% | (S)-enantiomer fraction that rescued the proliferation phenotype, cell viability (VCaP cells; 10 μM mixture + 1 nM R1881, 6 d, 95% CI (0.7%, 3.7%)): 2.2% | IC50 (VCaP cells; Homo sapiens, VCaP): 0.54 µM
